Where two headings read alike, the source gives them in different places.
Tests used:
HEK293-STF3A cells = experiment: STF3A assay (luciferase reporter); type: cell-based, Human; details: Homo sapiens, 24 h, 1 day of treatment
Procedure, shortened: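 HEK293 cells carrying the STF reporter and expressing Wnt3A, seeded 2×10^4 per well overnight, then treated 1 day with compound at final 50 μM to 1.5 nM. Luciferase activity read by luminescence after Steady-Glo reagent, 10 min at room temperature.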

AsPC-1 cells = experiment: Soft agar assay, AsPC-1; type: cell-based; details: for IC50: Homo sapiens, ASPC1
Method: (§1) AsPC-1 cells were maintained in RPMI164 supplemented with 10% FBS, 2 mM L-glutamine and P/S (100 units/ml penicillin and 100 μg/ml streptomycin). HPAF-II cells were maintained in MEM (Eagles′) supplemented with 10% FBS, 2 mM L-glutamine and P/S (100 units/ml penicillin and 100 μg/ml streptomycin). CFPAC-1 cells were maintained in Iscove MEM supplemented with 10% FBS, 2 mM L-glutamine and P/S (100 units/ml penicillin and 100 μg/ml streptomycin).
(§2) 600 μl of 0.6% agar was added to 24-well plate to form the base layer. Then a middle layer of 0.36% agar (containing 5000 cells and serially diluted compound) was added on to the base layer. Finally 500 μl of fresh growth medium was added to the top of the middle layer. The plates were incubated at 37° C. with 5% carbon dioxide in a humidified incubator for 2 weeks. Formation of colonies was observed using a light microscope. When the colony size was larger than 500 μm, 70 μl MTT (5 mg/ml) was added to each well and the plates were incubated at 37° C. for at least 2 hours. Colonies were counted with GelCount® instrument. The colony counts were plotted against compound concentrations using the GraphPad Prism software. The software was also used to perform non-linear curve fitting and calculation of compound concentration that inhibited 50% colony formation.

HPAF-II cells = experiment: Soft agar assay, HPAF-II; type: cell-based; details: for IC50: Homo sapiens
Method: as §1, §2

CFPAC-1 cells = experiment: Soft agar assay, CFPAC-1; type: cell-based; details: for IC50: Homo sapiens
Method: as §1, §2

MMTV-Wnt1 tumor = experiment: MMTV-Wnt1 mouse model; type: in vivo; details: for % T/C / % TGI / NTRD / T/C / TRD: Day 14
Method: 8-10 weeks old Female BALBc mice were anesthetised with 150 mg/kg Ketamine+75 mg/kg Xylazine. Under aseptic conditions, skin near the 4th mammary fat pad was incised. Mammary fat pad was tweaked with forceps and tumor fragment ˜2 mm^3 was implanted. The incision was closed using a tissue adhesive. Animals were randomised into groups of eight and treated daily with the test compounds for 14 days. Tumors were measured in two dimensions using calipers, and volume was calculated using the formula: Tumor Volume (mm^3)=[…]. Maximum tumor volume limit was 2000 mm^3.

mammalian PORCN = experiment: PORCN-null HT1080 cells transfected with mammalian PORCN, WNT3A, STF reporter; type: cell-based; details: luciferase, FIG. 1
Method: PORCN-null HT1080 cells were transfected with mammalian or Xenopus PORCN expression plasmids, along with WNT3A, STF reporter and mCherry as transfection control. 6 hours after transfection, cells were treated with the compounds or DMSO as indicated, and the following day assayed for luciferase. Xenopus PORCN was resistant to the inhibitory effects of compounds.

V5-tagged Wnt3a = experiment: Wnt3A palmitoylation assay; type: cell-based; details: 100 nM compound, HeLa cells, FIG. 4
Description: Wnt3A Palmitoylation Assay:
The assay used to determine the inhibition of the palmitoylation of Wnts by compound was described by Yap et al, (Yap MC, Kostiuk MA, Martin DD, Perinpanayagam MA, Hak PG, Siddam A, Majjigapu JR, Rajaiah G, Keller BO, Prescher JA, Wu P, Bertozzi CR, Falck JR, Berthiaume LG. 2010. Rapid and selective detection of fatty acylated proteins using omega-alkynyl-fatty acids and click chemistry. J Lipid Res. 51(6):1566-1580) with some modification. 3×10^6 HeLa cells were seeded in 10 cm culture dish and incubated at 37° C. overnight. […] After six hours, the cells were washed with PBS and treated with 100 μM alkyne palmitate in medium with 5% BSA. 100 nM compound or DMSO was added and the cells were incubated overnight at 37° C. The cells were lyzed and 600 μg cell lysate was collected and incubated with anti-V5 antibody (Invitrogen) followed by the pull down of V5-Wnt3a with the addition of Protein A/G agarose beads (Thermo scientific). The pulled down lysates containing V5-Wnt3a was click-reacted with biotin-azide (Invitrogen). The biotin-labelled protein lysate was then separated on SDS-PAGE and transferred to a nitrocellulose membrane. The membrane was incubated with primary anti-V5 antibody, followed by secondary anti-mouse Dylight 680 (Thermo scientific) to detect V5-Wnt3a. […]

`Cc1cc2n(n1)CCCN2C(=O)CCC(=O)Nc1ccc(-c2cccnc2)nn1` [Compound 51, 4-(2-methyl-6,7-dihydropyrazolo[1,5-a]pyrimidin-4(5H)-yl)-4-oxo-N-(6-(pyridin-3-yl)pyridazin-3-yl)butanamide] was tested, and the IC50 (HEK293-STF3A cells) was < 100 nM, the Maximum inhibition (AsPC-1 cells; AsPC-1) was 76% and the IC50 (AsPC-1 cells; AsPC-1, Test 1, read-out: Test 1 IC50 (colony growth inhibitory concentration)) was 24 nM. It also gave an IC50 (AsPC-1 cells; AsPC-1, Test 2, read-out: Test 2 IC50 (colony growth inhibitory concentration)) of 10 nM, an IC50 (AsPC-1 cells; AsPC-1, mean of two independent experiments, read-out: Mean IC50 (colony growth inhibitory concentration)) of 17 nM and a Maximum inhibition (HPAF-II cells) of 97%. The IC50 (HPAF-II cells; Test 1, read-out: Test 1 IC50 (colony growth inhibitory concentration)) was 8 nM, the IC50 (HPAF-II cells; Test 2, read-out: Test 2 IC50 (colony growth inhibitory concentration)) was 10 nM and the IC50 (HPAF-II cells; mean of two independent experiments, read-out: Mean IC50 (colony growth inhibitory concentration)) was 9 nM. It also gave a Maximum inhibition (CFPAC-1 cells; CFPAC-1) of 79%, an IC50 (CFPAC-1 cells; CFPAC-1, Test 1, read-out: Test 1 IC50 (colony growth inhibitory concentration)) of 58 nM and an IC50 (CFPAC-1 cells; CFPAC-1, Test 2, read-out: Test 2 IC50 (colony growth inhibitory concentration)) of 39 nM. For the same compound, the IC50 (CFPAC-1 cells; CFPAC-1, mean of two independent experiments, read-out: Mean IC50 (colony growth inhibitory concentration)) was 49 nM, the “% T/C” value (MMTV-Wnt1 tumor; 1 mg/Kg daily) was 37.5% and the “% TGI” value (MMTV-Wnt1 tumor; 1 mg/Kg daily) was 68%. For the same compound, the NTRD (MMTV-Wnt1 tumor; 1 mg/Kg daily) was 1/8, the T/C (MMTV-Wnt1 tumor; 1 mg/Kg daily) was 0.375 and the TRD (MMTV-Wnt1 tumor; 1 mg/Kg daily) was 0/8. The “% T/C” value (MMTV-Wnt1 tumor; 3 mg/Kg daily) was 38.3%, the “% TGI” value (MMTV-Wnt1 tumor; 3 mg/Kg daily) was 67% and the NTRD (MMTV-Wnt1 tumor; 3 mg/Kg daily) was 0/8. For the same compound, the T/C (MMTV-Wnt1 tumor; 3 mg/Kg daily) was 0.383, the TRD (MMTV-Wnt1 tumor; 3 mg/Kg daily) was 0/8 and the “% T/C” value (MMTV-Wnt1 tumor; 10 mg/Kg daily) was 16.0%. The “% TGI” value (MMTV-Wnt1 tumor; 10 mg/Kg daily) was 91%, the NTRD (MMTV-Wnt1 tumor; 10 mg/Kg daily) was 0/8 and the T/C (MMTV-Wnt1 tumor; 10 mg/Kg daily) was 0.160. For the same compound, the TRD (MMTV-Wnt1 tumor; 10 mg/Kg daily) was 0/8, the tumor growth (MMTV-Wnt1 tumor; treated mice, FIG. 2 and FIG. 3) was “decreased tumor growth in all the treated mice” and the “inhibition of the activity of mammalian porcupine” value (mammalian PORCN) was “inhibit the activity of mammalian porcupine”. The “Palmitoylation of Wnt3a” value (V5-tagged Wnt3a) was “inhibited”.
